From PubChem BioAssay (NCI)
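Compound exposure: 48 hours, 5 concentrations, 96-well plates. Definition used: TGI = concentration required for complete inhibition of growth.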

Columns and labels:
Assay in all cases: growth of human tumour cells (NCI), 48 h
A498 renal = tested on: A498 renal
SNB-75 CNS = tested on: SNB-75 CNS
IGROV1 ovarian = tested on: IGROV1 ovarian
SW-620 colon = tested on: SW-620 colon
SK-MEL-2 melanoma = tested on: SK-MEL-2 melanoma
NCI-H23 lung = tested on: NCI-H23 lung
COLO 205 colon = tested on: COLO 205 colon
MDA-MB-435 = tested on: MDA-MB-435
ACHN renal = tested on: ACHN renal
UACC-62 melanoma = tested on: UACC-62 melanoma
786-0 renal = tested on: 786-0 renal
OVCAR-3 ovarian = tested on: OVCAR-3 ovarian
SK-OV-3 ovarian = tested on: SK-OV-3 ovarian
K-562 leukemia = tested on: K-562 leukemia
HS 578T breast = tested on: HS 578T breast

Structure (SMILES) | TGI (A498 renal) | TGI (SNB-75 CNS) | TGI (IGROV1 ovarian) | TGI (SW-620 colon) | TGI (SK-MEL-2 melanoma) | TGI (NCI-H23 lung) | TGI (COLO 205 colon) | TGI (MDA-MB-435) | TGI (ACHN renal) | TGI (UACC-62 melanoma) | TGI (786-0 renal) | TGI (OVCAR-3 ovarian) | TGI (SK-OV-3 ovarian) | TGI (K-562 leukemia) | TGI (HS 578T breast)
CC(=O)NC1=NC(=O)/C(=C/c2ccc(/C=C3/C(=O)N=C(NC(C)=O)N3C)cc2)N1C | > 100 µM | > 100 µM | > 100 µM | > 100 µM | > 100 µM | > 100 µM | > 100 µM | > 100 µM | > 100 µM | > 100 µM | > 100 µM | > 100 µM | > 100 µM | – | –
COc1ccc(NCC(=O)Nn2c(-c3ccccc3)nc3ccccc3c2=O)cc1 | 88.6 µM | > 100 µM | > 100 µM | 82.9 µM | – | > 100 µM | > 100 µM | > 100 µM | > 100 µM | 32.3 µM | 73.6 µM | > 100 µM | > 100 µM | > 100 µM | > 100 µM
C[C@H](CCC1SC1(C)C)C1CCC2(C)C3=C(CC[C@]12C)[C@@]1(C)CC[C@H](O)C(C)(C)C1CC3 (stereo partly drawn) | > 100 µM | > 100 µM | > 100 µM | > 100 µM | > 100 µM | > 100 µM | > 100 µM | – | > 100 µM | > 100 µM | > 100 µM | > 100 µM | > 100 µM | > 100 µM | –
CCn1c2ccccc2c2c(-c3ccccc3)cc3c(c21)C(=O)N(c1ccccc1)C3=O | > 100 µM | > 100 µM | > 100 µM | > 100 µM | > 100 µM | > 100 µM | > 100 µM | – | > 100 µM | > 100 µM | > 100 µM | > 100 µM | > 100 µM | > 100 µM | –
C=C(Cl)C(Cl)(CCl)CCC(Br)C(C)(C)Br (stereo not drawn) | > 10 µM | > 10 µM | > 10 µM | > 10 µM | > 10 µM | > 10 µM | > 10 µM | > 10 µM | > 10 µM | > 10 µM | > 10 µM | > 10 µM | > 10 µM | > 10 µM | –
OC1COC2CC(Nc3ccccn3)OC12 (stereo not drawn) | – | > 100 µM | > 100 µM | > 100 µM | > 100 µM | > 100 µM | > 100 µM | > 100 µM | > 100 µM | > 100 µM | > 100 µM | > 100 µM | > 100 µM | > 100 µM | > 100 µM
O=C(O)/C=C/c1ccc2c(c1)CC1(Cc3ccccc3C1)C2 | > 100 µM | – | > 100 µM | – | 87.7 µM | > 100 µM | 52.3 µM | > 100 µM | > 100 µM | > 100 µM | > 100 µM | > 100 µM | > 100 µM | > 100 µM | > 100 µM
O=C1CSC(c2ccc(Cl)cc2Cl)N1c1ccc(Oc2ccc(Cl)cc2)c(Cl)c1 (stereo not drawn) | – | 60 µM | > 100 µM | > 100 µM | 72.7 µM | 69.6 µM | 61 µM | 26.3 µM | > 100 µM | 53.5 µM | 50.1 µM | 65.9 µM | 85.6 µM | > 100 µM | 41.9 µM
CCOC(=O)C1(C#N)CC1 | – | > 100 µM | > 100 µM | > 100 µM | > 100 µM | > 100 µM | > 100 µM | – | > 100 µM | > 100 µM | > 100 µM | – | > 100 µM | > 100 µM | > 100 µM
COc1nc2ccc(COc3ccc(C(=O)O)cc3)cc2nc1OC | > 100 µM | 53.4 µM | > 100 µM | > 100 µM | > 100 µM | > 100 µM | > 100 µM | > 100 µM | > 100 µM | > 100 µM | > 100 µM | > 100 µM | > 100 µM | > 100 µM | –
O=C(/C=C(\C(=O)c1cccs1)c1cccs1)c1ccc(C(=O)/C=C(\C(=O)c2cccs2)c2cccs2)cc1 | – | > 100 µM | > 100 µM | > 100 µM | > 100 µM | – | > 100 µM | > 100 µM | > 100 µM | > 100 µM | > 100 µM | – | > 100 µM | > 100 µM | > 100 µM
CCOC(=O)c1c(SC(=O)c2ccc(OC)cc2)n(-c2ccccc2)c(=S)n(-c2ccccc2)c1=O | > 100 µM | > 100 µM | 38 µM | 52.5 µM | – | > 100 µM | > 100 µM | > 100 µM | > 100 µM | > 100 µM | > 100 µM | > 100 µM | > 100 µM | > 100 µM | > 100 µM
O=c1[nH]c(=O)n(COCc2ccccc2)cc1Nc1ccc(Br)cc1 | > 100 µM | – | > 100 µM | > 100 µM | – | > 100 µM | > 100 µM | > 100 µM | > 100 µM | > 100 µM | > 100 µM | > 100 µM | – | > 100 µM | > 100 µM
Cc1nc2cc(Nc3ccccc3C(=O)O)ccc2s1 | > 100 µM | > 100 µM | > 100 µM | > 100 µM | > 100 µM | > 100 µM | > 100 µM | – | > 100 µM | > 100 µM | > 100 µM | > 100 µM | > 100 µM | > 100 µM | –
C#CCN(Cc1ccc2nc(-c3ccccc3)c(N)nc2c1)c1cc(OC)c(OC)c(OC)c1 | – | 83.5 µM | > 100 µM | > 100 µM | 64.8 µM | > 100 µM | 42.8 µM | – | 80.7 µM | 63.7 µM | > 100 µM | 59 µM | – | > 100 µM | –
[N-]=[N+]=CC(=O)OCCCCl | > 100 µM | – | > 100 µM | > 100 µM | > 100 µM | > 100 µM | > 100 µM | > 100 µM | > 100 µM | > 100 µM | > 100 µM | > 100 µM | > 100 µM | – | –
